# Experimental data from the NIST ThermoML archive (doi:10.1021/acs.jced.9b00218).
# ± gives the expanded uncertainty stated by the source.
# How the values were obtained:
# [1] = refractive index (Na D-line) (dimensionless); wn = mass fraction of the nth substance listed; conditions: 298.15 K, 100 kPa, Liquid, Standard Abbe refractometry
# [2] = wn = mass fraction of the nth substance listed; conditions: 298.15 K, 100 kPa, Liquid, Vibrating tube method
structure (smiles),measurement,setting,value
O=B[O-].[Li+] [lithium metaborate] + O,refractive index,[1]; w1 = 0.0336,1.3448 ± 0.002
same,mass density,[2]; w1 = 0.0336,1035.63 ± 12 kg/m3
O=B[O-].[Na+] [sodium metaborate] + O,refractive index,[1]; w1 = 0.2259,1.38898 ± 0.002
same,mass density,[2]; w1 = 0.2259,1280.56 ± 12 kg/m3
O=B[O-].[K+] [potassium metaborate] + O,refractive index,[1]; w1 = 0.4388,1.42543 ± 0.002
same,mass density,[2]; w1 = 0.4388,1539.08 ± 12 kg/m3
